Values of other authors in US20250091981A1, “PROCESS FOR THE PURIFICATION OF 5-AMINOSALICYLIC ACID” (CHEMI S.P.A., priority 2022, published 2025).

Tests used:
[1] = value reported in the literature
[2] = established in the guidelines

| SMILES | isoelectric pH [1] | maximum daily intake limit [2] [ng] |
| --- | --- | --- |
| Nc1ccc(O)c(C(=O)O)c1 [Example 5-ASA, 5-Amino salicylic acid] | 3.7 | – |
| CCN(CC)N=O [NDEA, N,N-diethyl-nitrosamine] | – | 26.5 |
